The compounds below were run on mice (assay: Neuropharmacological assay (SmartCube), behavioral signature of compound-treated mice). Conditions: i.p. 15 min before behavioral test, most efficacious dose(s) of 3 doses.
Assay type: in vivo
In short: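 Mice received compound i.p. in NMP/PEG/propylene glycol vehicle at 3 doses, 15 min before testing. Video-captured behavior was algorithmically compared with a reference-drug signature database.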
`FC1(F)CN[C@H]([C@@H]2OCCc3ccccc32)C1` [Compound I-64, (S)-4,4-difluoro-2-((R)-isochroman-1-yl)pyrrolidine] was tested, and the “AD: ADHD (probability that behavioral signature matches class)” value (“AD: ADHD” for short) was “+ (LOQ ≤ + <5%)”, the “AG: analgesic (probability that behavioral signature matches class)” value (“AG: analgesic” for short) was “+ (LOQ ≤ + <5%)” and the “AX: anxiolytic (probability that behavioral signature matches class)” value (from here on “AX: anxiolytic”) was “++ (5% ≤ ++ <25%)”. The “CE: cognitive enhancer (probability that behavioral signature matches class)” value (shortened to “CE: cognitive enhancer”) was “+ (LOQ ≤ + <5%)”, the “DP: anti-depressant (probability that behavioral signature matches class)” value (“DP: anti-depressant” below) was “+ (LOQ ≤ + <5%)” and the “HA: hallucinogen (probability that behavioral signature matches class)” value (shortened to “HA: hallucinogen”) was “+ (LOQ ≤ + <5%)”. The “MS: mood stabilizer (probability that behavioral signature matches class)” value (from here on “MS: mood stabilizer”) was “+ (LOQ ≤ + <5%)”, the “PS: anti-psychotic (probability that behavioral signature matches class)” value (“PS: anti-psychotic” below) was “+ (LOQ ≤ + <5%)” and the “SD: sedative hypnotic (probability that behavioral signature matches class)” value (from here on “SD: sedative hypnotic”) was “+ (LOQ ≤ + <5%)”. For the same compound, the “UN: uncharacterized CNS activity (probability that behavioral signature matches class)” value (from here on “UN: uncharacterized CNS activity”) was “+ (LOQ ≤ + <5%)” and the “XG: anxiogenic (probability that behavioral signature matches class)” value (“XG: anxiogenic” for short) was “+ (LOQ ≤ + <5%)”.
`c1ccc2c(c1)CCO[C@H]2C1CNC1` [Compound I-115, (S)-3-(isochroman-1-yl)azetidine] was tested, and the “AD: ADHD” value was “+ (LOQ ≤ + <5%)”, the “AG: analgesic” value was “++ (5% ≤ ++ <25%)” and the “AX: anxiolytic” value was “++ (5% ≤ ++ <25%)”. For the same compound, the “CE: cognitive enhancer” value was “++ (5% ≤ ++ <25%)”, the “DP: anti-depressant” value was “++ (5% ≤ ++ <25%)” and the “HA: hallucinogen” value was “+ (LOQ ≤ + <5%)”. For the same compound, the “MS: mood stabilizer” value was “+ (LOQ ≤ + <5%)”, the “PS: anti-psychotic” value was “++ (5% ≤ ++ <25%)” and the “SD: sedative hypnotic” value was “++ (5% ≤ ++ <25%)”. The “UN: uncharacterized CNS activity” value was “+++ (25% ≤ +++ <50%)” and the “XG: anxiogenic” value was “+ (LOQ ≤ + <5%)”.
For `c1ccc2c(c1)CCO[C@@H]2C1CNC1` [Compound I-114, (R)-3-(isochroman-1-yl)azetidine], the “AD: ADHD” value was “+ (LOQ ≤ + <5%)”, the “AG: analgesic” value was “++ (5% ≤ ++ <25%)” and the “AX: anxiolytic” value was “++ (5% ≤ ++ <25%)”. For the same compound, the “CE: cognitive enhancer” value was “++ (5% ≤ ++ <25%)”, the “DP: anti-depressant” value was “+++ (25% ≤ +++ <50%)” and the “HA: hallucinogen” value was “+ (LOQ ≤ + <5%)”. The “MS: mood stabilizer” value was “+ (LOQ ≤ + <5%)”, the “PS: anti-psychotic” value was “++ (5% ≤ ++ <25%)” and the “SD: sedative hypnotic” value was “++ (5% ≤ ++ <25%)”. For the same compound, the “UN: uncharacterized CNS activity” value was “+ (LOQ ≤ + <5%)” and the “XG: anxiogenic” value was “+ (LOQ ≤ + <5%)”.
In the case of `c1cc2c(c3c1CCO[C@@H]3[C@@H]1CCCN1)OCO2` [Compound I-51, (S)-2-((S)-7,9-dihydro-6H-[1,3]dioxolo[4,5-h]isochromen-9-yl)pyrrolidine], the “AD: ADHD” value is reported as “+ (LOQ ≤ + <5%)”, the “AG: analgesic” value is reported as “++ (5% ≤ ++ <25%)” and the “AX: anxiolytic” value is reported as “++ (5% ≤ ++ <25%)”. For the same compound, the “CE: cognitive enhancer” value was “+ (LOQ ≤ + <5%)”, the “DP: anti-depressant” value was “+ (LOQ ≤ + <5%)” and the “HA: hallucinogen” value was “+ (LOQ ≤ + <5%)”. For the same compound, the “MS: mood stabilizer” value was “+ (LOQ ≤ + <5%)”, the “PS: anti-psychotic” value was “+ (LOQ ≤ + <5%)” and the “SD: sedative hypnotic” value was “+ (LOQ ≤ + <5%)”. For the same compound, the “UN: uncharacterized CNS activity” value was “++ (5% ≤ ++ <25%)” and the “XG: anxiogenic” value was “+ (LOQ ≤ + <5%)”.
For `Clc1ccc2c(c1)[C@@H]([C@@H]1CCCN1)OCC2` [Compound I-30, (S)-2-((S)-7-chloroisochroman-1-yl)pyrrolidine], the “AD: ADHD” value was “+ (LOQ ≤ + <5%)”, the “AG: analgesic” value was “++ (5% ≤ ++ <25%)” and the “AX: anxiolytic” value was “+++ (25% ≤ +++ <50%)”. The “CE: cognitive enhancer” value was “++ (5% ≤ ++ <25%)”, the “DP: anti-depressant” value was “++ (5% ≤ ++ <25%)” and the “HA: hallucinogen” value was “+ (LOQ ≤ + <5%)”. For the same compound, the “MS: mood stabilizer” value was “+ (LOQ ≤ + <5%)”, the “PS: anti-psychotic” value was “+++ (25% ≤ +++ <50%)” and the “SD: sedative hypnotic” value was “++ (5% ≤ ++ <25%)”. For the same compound, the “UN: uncharacterized CNS activity” value was “+ (LOQ ≤ + <5%)” and the “XG: anxiogenic” value was “+ (LOQ ≤ + <5%)”.
For `Fc1ccc2c(c1)[C@H](F)CO[C@H]2[C@@H]1CCN1` [Compound I-135, (2S)-2-((1R)-4,6-difluoroisochroman-1-yl)azetidine], the “AD: ADHD” value was “+ (LOQ ≤ + <5%)”, the “AG: analgesic” value was “++ (5% ≤ ++ <25%)” and the “AX: anxiolytic” value was “++ (5% ≤ ++ <25%)”. The “CE: cognitive enhancer” value was “++ (5% ≤ ++ <25%)”, the “DP: anti-depressant” value was “++ (5% ≤ ++ <25%)” and the “HA: hallucinogen” value was “+ (LOQ ≤ + <5%)”. The “MS: mood stabilizer” value was “++ (5% ≤ ++ <25%)”, the “PS: anti-psychotic” value was “+++ (25% ≤ +++ <50%)” and the “SD: sedative hypnotic” value was “++ (5% ≤ ++ <25%)”. For the same compound, the “UN: uncharacterized CNS activity” value was “++ (5% ≤ ++ <25%)” and the “XG: anxiogenic” value was “+ (LOQ ≤ + <5%)”.
`Fc1cccc2c1[C@@H]([C@@H]1CCN1)OCC2` [Compound I-84, (S)-2-((S)-8-fluoroisochroman-1-yl)azetidine] was tested, and the “AD: ADHD” value was “+ (LOQ ≤ + <5%)”, the “AG: analgesic” value was “+ (LOQ ≤ + <5%)” and the “AX: anxiolytic” value was “++ (5% ≤ ++ <25%)”. For the same compound, the “CE: cognitive enhancer” value was “+ (LOQ ≤ + <5%)”, the “DP: anti-depressant” value was “++ (5% ≤ ++ <25%)” and the “HA: hallucinogen” value was “+ (LOQ ≤ + <5%)”. For the same compound, the “MS: mood stabilizer” value was “++ (5% ≤ ++ <25%)”, the “PS: anti-psychotic” value was “++++ (50% ≤ ++++)” and the “SD: sedative hypnotic” value was “++ (5% ≤ ++ <25%)”. The “UN: uncharacterized CNS activity” value was “+ (LOQ ≤ + <5%)” and the “XG: anxiogenic” value was “+ (LOQ ≤ + <5%)”.
`CC1(C)CN[C@H]([C@@H]2OCCc3ccccc32)C1` [Compound I-59, (S)-2-((R)-isochroman-1-yl)-4,4-dimethylpyrrolidine] was tested, and the “AD: ADHD” value was “+ (LOQ ≤ + <5%)”, the “AG: analgesic” value was “+ (LOQ ≤ + <5%)” and the “AX: anxiolytic” value was “++ (5% ≤ ++ <25%)”. The “CE: cognitive enhancer” value was “++ (5% ≤ ++ <25%)”, the “DP: anti-depressant” value was “++ (5% ≤ ++ <25%)” and the “HA: hallucinogen” value was “+ (LOQ ≤ + <5%)”. The “MS: mood stabilizer” value was “++ (5% ≤ ++ <25%)”, the “PS: anti-psychotic” value was “++ (5% ≤ ++ <25%)” and the “SD: sedative hypnotic” value was “+ (LOQ ≤ + <5%)”. The “UN: uncharacterized CNS activity” value was “+ (LOQ ≤ + <5%)” and the “XG: anxiogenic” value was “+ (LOQ ≤ + <5%)”.
`c1ccc2c(c1)CCCO[C@@H]2[C@@H]1CCCN1` [Compound I-97, (S)-2-((S)-1,3,4,5-tetrahydrobenzo[c]oxepin-1-yl)pyrrolidine] was tested, and the “AD: ADHD” value was “+ (LOQ ≤ + <5%)”, the “AG: analgesic” value was “+++ (25% ≤ +++ <50%)” and the “AX: anxiolytic” value was “++ (5% ≤ ++ <25%)”. For the same compound, the “CE: cognitive enhancer” value was “++ (5% ≤ ++ <25%)”, the “DP: anti-depressant” value was “++ (5% ≤ ++ <25%)” and the “HA: hallucinogen” value was “+ (LOQ ≤ + <5%)”. For the same compound, the “MS: mood stabilizer” value was “++ (5% ≤ ++ <25%)”, the “PS: anti-psychotic” value was “+++ (25% ≤ +++ <50%)” and the “SD: sedative hypnotic” value was “++ (5% ≤ ++ <25%)”. The “UN: uncharacterized CNS activity” value was “+ (LOQ ≤ + <5%)” and the “XG: anxiogenic” value was “+ (LOQ ≤ + <5%)”.
In the case of `Cc1cccc2c1[C@H]([C@H]1CCCN1)OCCC2` [Compound I-103, (R)-2-((R)-9-methyl-1,3,4,5-tetrahydrobenzo[c]oxepin-1-yl)pyrrolidine], the “AD: ADHD” value is reported as “+ (LOQ ≤ + <5%)”, the “AG: analgesic” value is reported as “++ (5% ≤ ++ <25%)” and the “AX: anxiolytic” value is reported as “++ (5% ≤ ++ <25%)”. For the same compound, the “CE: cognitive enhancer” value was “+ (LOQ ≤ + <5%)”, the “DP: anti-depressant” value was “++ (5% ≤ ++ <25%)” and the “HA: hallucinogen” value was “+ (LOQ ≤ + <5%)”. The “MS: mood stabilizer” value was “+ (LOQ ≤ + <5%)”, the “PS: anti-psychotic” value was “+ (LOQ ≤ + <5%)” and the “SD: sedative hypnotic” value was “++ (5% ≤ ++ <25%)”. The “UN: uncharacterized CNS activity” value was “+++ (25% ≤ +++ <50%)” and the “XG: anxiogenic” value was “+ (LOQ ≤ + <5%)”.
For `c1ccc(-c2ccc3c(c2)CCO[C@@H]3[C@@H]2CCCN2)nc1` [Compound I-57, 2-((S)-1-((S)-pyrrolidin-2-yl)isochroman-6-yl)pyridine], the “AD: ADHD” value was “+ (LOQ ≤ + <5%)”, the “AG: analgesic” value was “+ (LOQ ≤ + <5%)” and the “AX: anxiolytic” value was “+ (LOQ ≤ + <5%)”. For the same compound, the “CE: cognitive enhancer” value was “+ (LOQ ≤ + <5%)”, the “DP: anti-depressant” value was “+ (LOQ ≤ + <5%)” and the “HA: hallucinogen” value was “+ (LOQ ≤ + <5%)”. For the same compound, the “MS: mood stabilizer” value was “+ (LOQ ≤ + <5%)”, the “PS: anti-psychotic” value was “+ (LOQ ≤ + <5%)” and the “SD: sedative hypnotic” value was “+ (LOQ ≤ + <5%)”. For the same compound, the “UN: uncharacterized CNS activity” value was “+ (LOQ ≤ + <5%)” and the “XG: anxiogenic” value was “+ (LOQ ≤ + <5%)”.

— US10336732B2, “1-heterocyclyl isochromanyl compounds and analogs for treating CNS disorders” (Sunovion Pharmaceuticals Inc., priority 2015, dated 2019)
